Among the targets are PRKCD (Homo sapiens, UniProt Q05655); CHEK2 (Homo sapiens, UniProt O96017); MAP3K4 (Homo sapiens, UniProt Q9Y6R4).
Holding throughout (assay): biochemical
The target of another assay is T1, PKMYT1 (Homo sapiens, UniProt Q99640).
T1 sequence (Q99640 1-499): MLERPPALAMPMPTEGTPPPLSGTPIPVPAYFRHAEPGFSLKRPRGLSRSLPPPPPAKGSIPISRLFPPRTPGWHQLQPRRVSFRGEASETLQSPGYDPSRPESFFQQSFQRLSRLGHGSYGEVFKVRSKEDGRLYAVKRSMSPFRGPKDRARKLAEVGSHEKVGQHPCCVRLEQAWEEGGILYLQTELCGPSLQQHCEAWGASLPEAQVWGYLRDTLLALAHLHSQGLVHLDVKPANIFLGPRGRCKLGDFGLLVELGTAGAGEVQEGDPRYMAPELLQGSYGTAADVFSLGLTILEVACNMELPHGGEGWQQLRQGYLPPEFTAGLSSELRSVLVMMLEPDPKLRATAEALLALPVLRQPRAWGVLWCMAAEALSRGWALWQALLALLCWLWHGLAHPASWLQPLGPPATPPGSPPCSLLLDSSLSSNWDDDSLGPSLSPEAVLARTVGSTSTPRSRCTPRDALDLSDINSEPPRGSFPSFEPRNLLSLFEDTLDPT

For another assay, the target named is T2, GAK (Homo sapiens, UniProt O14976).
T2 sequence (O14976 1-1311): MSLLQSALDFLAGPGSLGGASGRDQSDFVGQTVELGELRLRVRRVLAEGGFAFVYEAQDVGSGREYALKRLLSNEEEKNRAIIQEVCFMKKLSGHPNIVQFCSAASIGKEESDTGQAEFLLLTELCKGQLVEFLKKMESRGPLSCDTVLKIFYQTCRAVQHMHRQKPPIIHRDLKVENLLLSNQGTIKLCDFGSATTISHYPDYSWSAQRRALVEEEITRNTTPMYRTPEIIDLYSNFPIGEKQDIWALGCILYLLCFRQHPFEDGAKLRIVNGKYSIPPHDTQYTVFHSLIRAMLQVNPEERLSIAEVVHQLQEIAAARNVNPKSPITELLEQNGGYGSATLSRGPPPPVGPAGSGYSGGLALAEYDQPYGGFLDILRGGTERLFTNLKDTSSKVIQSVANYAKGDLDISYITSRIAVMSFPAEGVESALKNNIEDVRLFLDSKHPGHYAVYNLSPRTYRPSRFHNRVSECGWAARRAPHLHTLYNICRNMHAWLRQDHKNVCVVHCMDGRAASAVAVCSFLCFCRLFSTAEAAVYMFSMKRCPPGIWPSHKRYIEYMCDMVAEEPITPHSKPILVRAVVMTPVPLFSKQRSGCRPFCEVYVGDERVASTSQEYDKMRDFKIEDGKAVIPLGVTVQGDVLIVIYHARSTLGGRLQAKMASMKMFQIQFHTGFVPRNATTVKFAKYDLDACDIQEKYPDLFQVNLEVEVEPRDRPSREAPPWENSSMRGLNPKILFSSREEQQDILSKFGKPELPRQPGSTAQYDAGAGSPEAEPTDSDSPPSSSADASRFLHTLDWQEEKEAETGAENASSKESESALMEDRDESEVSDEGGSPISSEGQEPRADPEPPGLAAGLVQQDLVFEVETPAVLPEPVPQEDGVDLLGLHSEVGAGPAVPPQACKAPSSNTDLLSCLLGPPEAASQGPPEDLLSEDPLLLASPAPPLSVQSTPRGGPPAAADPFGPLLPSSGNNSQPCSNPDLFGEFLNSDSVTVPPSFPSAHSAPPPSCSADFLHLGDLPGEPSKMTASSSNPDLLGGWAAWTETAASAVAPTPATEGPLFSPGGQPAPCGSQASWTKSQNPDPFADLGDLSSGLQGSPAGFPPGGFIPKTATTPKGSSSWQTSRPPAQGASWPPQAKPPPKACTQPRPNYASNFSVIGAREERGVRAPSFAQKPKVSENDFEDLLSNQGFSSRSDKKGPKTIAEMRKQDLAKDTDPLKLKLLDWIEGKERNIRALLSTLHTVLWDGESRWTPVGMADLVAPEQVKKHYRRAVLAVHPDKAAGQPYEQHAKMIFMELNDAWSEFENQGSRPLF

Another assay concerns the target T3, STK17A (Homo sapiens, UniProt Q9UEE5).
T3 sequence (Q9UEE5 1-414): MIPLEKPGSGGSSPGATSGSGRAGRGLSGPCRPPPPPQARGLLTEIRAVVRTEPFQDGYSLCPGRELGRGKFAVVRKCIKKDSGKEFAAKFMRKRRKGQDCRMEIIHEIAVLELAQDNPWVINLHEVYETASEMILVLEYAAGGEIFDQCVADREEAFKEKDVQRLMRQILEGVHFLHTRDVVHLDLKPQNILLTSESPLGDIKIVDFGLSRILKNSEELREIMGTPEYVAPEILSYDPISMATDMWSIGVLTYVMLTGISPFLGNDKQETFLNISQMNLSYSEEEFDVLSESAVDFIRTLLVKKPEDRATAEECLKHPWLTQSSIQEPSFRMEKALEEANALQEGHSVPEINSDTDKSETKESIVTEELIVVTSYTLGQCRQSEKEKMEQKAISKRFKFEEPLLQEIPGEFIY

SMILES strings stand for the structures. Where “and” joins values, the source holds several entries; their conditions need not be identical. Equal entries are not always repeated.

Usually IC50 stands for the concentration that gives 50% inhibition. The low end stands for higher potency, the high end for lower potency.

Chain of CHEK2 (O96017 whole entry): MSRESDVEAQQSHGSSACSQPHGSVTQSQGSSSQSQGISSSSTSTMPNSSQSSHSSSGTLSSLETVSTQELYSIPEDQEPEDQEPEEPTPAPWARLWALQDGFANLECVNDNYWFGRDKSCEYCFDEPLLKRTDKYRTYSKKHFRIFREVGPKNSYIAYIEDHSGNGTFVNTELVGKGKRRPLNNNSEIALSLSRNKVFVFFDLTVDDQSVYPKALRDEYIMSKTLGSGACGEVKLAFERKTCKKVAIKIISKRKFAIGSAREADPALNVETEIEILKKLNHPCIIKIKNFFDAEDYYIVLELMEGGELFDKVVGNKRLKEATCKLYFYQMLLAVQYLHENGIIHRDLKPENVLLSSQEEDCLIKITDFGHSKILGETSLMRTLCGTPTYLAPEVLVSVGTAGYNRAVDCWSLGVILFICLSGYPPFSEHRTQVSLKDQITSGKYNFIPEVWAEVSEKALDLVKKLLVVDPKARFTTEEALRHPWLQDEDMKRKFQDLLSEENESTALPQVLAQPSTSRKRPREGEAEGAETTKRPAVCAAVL
Chain of MAP3K4 (Q9Y6R4 whole entry): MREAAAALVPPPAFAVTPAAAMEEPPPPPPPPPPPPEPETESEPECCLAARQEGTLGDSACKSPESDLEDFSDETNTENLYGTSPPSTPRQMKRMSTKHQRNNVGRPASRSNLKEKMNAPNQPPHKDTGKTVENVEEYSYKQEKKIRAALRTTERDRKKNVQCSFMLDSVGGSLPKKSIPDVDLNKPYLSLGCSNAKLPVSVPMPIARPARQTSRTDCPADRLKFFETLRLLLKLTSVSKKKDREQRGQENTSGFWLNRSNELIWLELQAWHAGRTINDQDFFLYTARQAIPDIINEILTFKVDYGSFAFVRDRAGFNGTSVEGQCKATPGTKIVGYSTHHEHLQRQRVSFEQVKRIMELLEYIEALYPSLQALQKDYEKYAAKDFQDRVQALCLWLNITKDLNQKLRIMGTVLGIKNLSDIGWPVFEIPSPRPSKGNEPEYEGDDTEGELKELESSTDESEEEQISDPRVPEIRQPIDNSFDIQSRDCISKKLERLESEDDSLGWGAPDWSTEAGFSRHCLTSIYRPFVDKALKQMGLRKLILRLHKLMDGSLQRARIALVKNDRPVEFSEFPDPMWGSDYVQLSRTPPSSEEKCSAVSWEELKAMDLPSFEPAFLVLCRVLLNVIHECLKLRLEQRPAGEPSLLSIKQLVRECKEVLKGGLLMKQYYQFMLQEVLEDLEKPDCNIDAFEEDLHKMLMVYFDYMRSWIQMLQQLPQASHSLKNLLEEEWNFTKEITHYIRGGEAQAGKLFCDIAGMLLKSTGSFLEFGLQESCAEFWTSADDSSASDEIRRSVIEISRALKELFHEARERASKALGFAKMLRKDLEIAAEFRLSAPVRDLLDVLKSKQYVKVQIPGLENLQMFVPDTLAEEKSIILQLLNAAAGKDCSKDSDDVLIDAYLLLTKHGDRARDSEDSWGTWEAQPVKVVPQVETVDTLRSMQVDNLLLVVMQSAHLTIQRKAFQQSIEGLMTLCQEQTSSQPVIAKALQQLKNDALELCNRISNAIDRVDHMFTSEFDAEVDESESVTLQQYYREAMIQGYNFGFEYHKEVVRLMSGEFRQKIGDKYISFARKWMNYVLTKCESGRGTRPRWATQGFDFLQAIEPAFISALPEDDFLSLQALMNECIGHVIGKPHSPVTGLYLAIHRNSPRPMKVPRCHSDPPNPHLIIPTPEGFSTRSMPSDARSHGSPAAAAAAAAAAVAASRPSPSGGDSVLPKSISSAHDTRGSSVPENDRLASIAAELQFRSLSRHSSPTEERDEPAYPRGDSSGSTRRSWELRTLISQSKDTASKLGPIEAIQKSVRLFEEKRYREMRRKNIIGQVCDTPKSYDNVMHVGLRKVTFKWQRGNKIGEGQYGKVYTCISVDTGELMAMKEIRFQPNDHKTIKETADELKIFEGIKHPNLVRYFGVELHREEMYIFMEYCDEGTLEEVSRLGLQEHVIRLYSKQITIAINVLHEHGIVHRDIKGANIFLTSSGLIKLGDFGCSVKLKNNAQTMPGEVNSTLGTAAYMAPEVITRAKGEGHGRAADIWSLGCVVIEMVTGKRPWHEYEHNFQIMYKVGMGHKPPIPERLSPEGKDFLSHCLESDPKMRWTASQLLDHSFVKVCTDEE
Chain of PRKCD (Q05655 whole entry): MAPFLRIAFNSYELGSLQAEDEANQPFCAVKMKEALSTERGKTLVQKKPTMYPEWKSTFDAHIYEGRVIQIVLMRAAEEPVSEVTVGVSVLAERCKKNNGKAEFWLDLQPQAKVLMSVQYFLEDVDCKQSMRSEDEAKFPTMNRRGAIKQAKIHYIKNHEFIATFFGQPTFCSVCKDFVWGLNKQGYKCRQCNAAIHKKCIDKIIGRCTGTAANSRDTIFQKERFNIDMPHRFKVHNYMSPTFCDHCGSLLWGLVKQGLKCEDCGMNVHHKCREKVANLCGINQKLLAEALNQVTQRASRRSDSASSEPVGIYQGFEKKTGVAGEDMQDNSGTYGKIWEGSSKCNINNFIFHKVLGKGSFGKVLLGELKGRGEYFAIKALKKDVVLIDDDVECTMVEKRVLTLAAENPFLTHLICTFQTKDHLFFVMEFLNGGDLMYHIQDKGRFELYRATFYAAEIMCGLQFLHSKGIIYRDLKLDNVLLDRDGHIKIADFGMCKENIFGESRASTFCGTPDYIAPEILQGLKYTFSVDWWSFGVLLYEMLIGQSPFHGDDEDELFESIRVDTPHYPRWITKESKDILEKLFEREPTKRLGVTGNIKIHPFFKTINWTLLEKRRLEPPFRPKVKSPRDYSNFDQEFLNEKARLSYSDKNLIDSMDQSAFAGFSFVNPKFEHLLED

Regarding `CN1CCN(c2ccc(Nc3ncc(C#N)c(Nc4ccccc4C(N)=O)n3)cc2)CC1.Cl` [TCMDC-134116], the IC50 at PRKCD is 850 nM; against CHEK2, 170 nM; on PKMYT1 it was 1400 nM and 940 nM; at MAP3K4 it was 39 nM and 51 nM; against GAK it was 82 nM and 100 nM; on STK17A, 180 nM.

On to `Cl.NCC1(c2nc(-c3ccc(Cl)c(O)c3)c(-c3ccncc3)[nH]2)CCCCC1` [TCMDC-141154], for which the IC50 against PRKCD was 1000 nM; against CHEK2, > 20000 nM; at PKMYT1 it was > 20000 nM; on MAP3K4 it was > 20000 nM; at GAK it was > 20000 nM; at STK17A, > 20000 nM.

Take `CN(C)CC(O)COc1ccc(Nc2ncc([N+](=O)[O-])c(Nc3ccccc3O)n2)cc1.O=C(O)C(F)(F)F` (stereo not drawn) [TCMDC-141399]: the IC50 against PRKCD is > 20000 nM; against CHEK2 it was 11000 nM; on PKMYT1, > 20000 nM; against MAP3K4 it was 840 nM; against GAK, 1500 nM and 2300 nM; at STK17A, 4200 nM.

These data come from paper PMC4774911, “Biochemical Screening of Five Protein Kinases from Plasmodium falciparum against 14,000 Cell-Active Compounds” (PLoS ONE, 2016).
